This is an account of results in US20100003217A1, “Compounds and Pharmaceutical Compositions for the Treatment of Viral Infections” (priority 2008, published 2010).

In series [1] the test system is S282T HCV replicon (184R-A cells). Kind of series: microbe, parasite or virus in culture. Here is the method:
3. The 184R-A cell line was derived by culturing wild-type replicon cells in the presence of 1 to 5 μM of Compound 1 for >100 days.
1. […] Huh-7 cells were seeded into column 1 of each plate at a similar density.
2. […] Eight additional 3-fold serial dilutions of each compound were prepared from the 2× stock in assay medium. Final drug concentrations ranged from 100 to 0.015 μM.
3. […] This setup was run in duplicate in each 96-well plate.
4. Cells were incubated with inhibitors for three days at 37° C./5% CO2.
1. After three days of drug treatment, media was removed from the plates via gentle tapping and the cells were fixed to the plates with 100 μL/well of 1:1 acetone:methanol.
2. After one minute of incubation at room temperature, plates were washed three times with 100 μL/well of ELISA wash solution and then blocked with 150 μL/well of 10% FBS-TNE.
3. After a one hour incubation at room temperature, plates were washed three times with 100 μL/well of ELISA wash solution, and then 100 μL/well of mouse anti-hepatitis C […] mAb (1 mg/mL stock diluted 1:1,500 in 10% FBS-TNE) was added.
4. Following 2 hours of incubation at 37° C., plates were washed three times with 100 μL/well of ELISA wash solution, and then 100 μL/well of HRP-goat anti-mouse antibody (diluted 1:4,000 in 10% FBS-TNE) was added.
4. After a one hour incubation period at 37° C., each plate was washed three times with 100 μL/well of ELISA wash solution. Color development was then initiated with 100 μL/well of OPD solution.
5. After a 30 minute incubation period in the dark at room temperature, reactions were stopped by adding 100 μL of 2NH2SO4 to each well.
6. The absorbance was measured at 490 nm on a Victor^3 V 1420 multilabel counter (Perkin Elmer). The percent inhibition of HCV replicon replication was calculated for each drug using an average of the duplicate wells.

In a further series the target is CYP1A2 (Homo sapiens, UniProt P05177). Kind of series: Incubation with human recombinant CYP450 supersomes, 1A2. Format: in vitro ADME. Conditions: CYP450 1A2 supersomes, 60 min, 10 μM, average of two experiments. Here is the method:
Supersomes—Incubations were conducted in a final volume of 0.1 mL reaction buffer (50-100 mM potassium phosphate, pH 7.4 or 100 mM Tris-HCL, pH 7.4) according to protocol provided with each CYP450 supersome. Each reaction contained […] of CYP450 supersome, 1.3 mM NADP^+, 3.3 mM glucose-6-phosphate, 0.4 U/mL glucose-6-phosphate dehydrogenase, 3.3 mM MgCl2 and 10 μM Compound 1. Following incubation for 60 min at 37° C., 100 μL of stop solution (acetonitrile:methanol; 1:1) was added and samples centrifuged for 10 min at 10,000×g. The supernatant was then dried and reconstituted in 10 mM potassium phosphate, pH 5, further transferred to an HPLC glass vial and analyzed by HPLC-UV (described above).

A further series deals with rat primary hepatocytes. Kind of series: In vitro intracellular half-life of 2′-C-methyl guanosine-5′-triphosphate (Compound 7) in rat primary hepatocytes. In kind it is in vitro ADME. Conditions: for Decay of Compound 7: level in cellular extracts: rat hepatocytes Rs458, after 24 h incubation with 10 μM [^14C]-Compound 1. The method, then: (§1) Primary hepatocytes were incubated with 10 μM [^14C]-Compound 1 ([…]) or [^14C]-2′-C-methyl guanosine (127 DPM/μmol) for 24 hours at which time the incubation medium was removed and the cell monolayer carefully washed two times with warm (37° C.) PBS and placed back in culture with drug-free medium. At selected times up to 24 hours, the medium was removed and the cell monolayers carefully washed two times with ice-cold PBS. Following the last wash, all PBS was carefully removed and the cell monolayers processed and extracted as previously described. […]

Experiment in series [2]: as above
In kind it is in vitro ADME. The conditions noted are these: primary hepatocytes (cellular extracts). Here is the method:
as §1

Where [3] appears, read: rat hepatocytes, [^14C]-Compound 1 removed.

CYP1A2, sequence (P05177 whole entry): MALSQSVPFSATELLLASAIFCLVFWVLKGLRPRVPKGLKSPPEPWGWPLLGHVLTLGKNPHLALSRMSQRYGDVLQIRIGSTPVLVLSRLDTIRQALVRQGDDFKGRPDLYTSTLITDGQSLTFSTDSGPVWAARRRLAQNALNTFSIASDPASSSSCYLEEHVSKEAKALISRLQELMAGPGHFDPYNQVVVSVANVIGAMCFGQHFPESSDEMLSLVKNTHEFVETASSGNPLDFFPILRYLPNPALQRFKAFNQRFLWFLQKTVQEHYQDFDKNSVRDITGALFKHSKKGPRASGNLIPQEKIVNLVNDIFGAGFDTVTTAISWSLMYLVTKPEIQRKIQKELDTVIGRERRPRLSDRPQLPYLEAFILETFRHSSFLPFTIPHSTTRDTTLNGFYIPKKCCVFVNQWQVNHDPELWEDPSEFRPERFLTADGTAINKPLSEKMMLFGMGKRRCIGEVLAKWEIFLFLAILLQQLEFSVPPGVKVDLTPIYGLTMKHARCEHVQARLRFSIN

The term EC50 denotes the concentration that produces a half-maximal response. Read a high EC50 as weaker potency. Regarding `CC(C)(CO)C(=O)SCCOP(=O)(NCc1ccccc1)OC[C@H]1O[C@@H](n2cnc3c(=O)[nH]c(N)nc32)[C@](C)(O)[C@@H]1O` (mixture of isomers) [Compound 1, 3-hydroxy-2,2-dimethyl-thiopropionic acid S-(2-{[(2R,3R,4R,5R)-5-(2-amino-6-oxo-1,6-dihydro-purin-9-yl)-3,4-dihydroxy-4-methyl-tetrahydro-furan-2-ylmethoxy]-benzylamino-phosphoryloxy}-ethyl) ester], in series [1] (184R-A (S282T), EC50 in resistant line divided by EC50 in wild-type cells), the “Fold shift from wild-type” value stood at 30 fold. Moreover, in series [1] (Hepatitis C virus), a half-maximal response (EC50) required 9 µM. Besides, the “% Residual Compound 1” value on CYP1A2 stood at 104%.

The term half-life denotes the time needed for the level to fall by half in the phase considered. Low values mean fast loss, high ones slow loss. For the molecule `C[C@@]1(O)[C@H](O)[C@@H](COP(=O)(O)OP(=O)(O)OP(=O)(O)O)O[C@H]1n1cnc2c(=O)[nH]c(N)nc21` [Compound 7, [(2R)-2-methyl-β-D-ribofuranosyl]guanine 5′-triphosphate], the “Decay of Compound 7: level in cellular extracts” value in the series with rat primary hepatocytes (decay time 0 h) is listed as 932 pmol/million cells; with rat primary hepatocytes (decay time 1 h), 954 pmol/million cells; with rat primary hepatocytes (decay time 4 h), 811 pmol/million cells; with rat primary hepatocytes (decay time 8 h), 545 pmol/million cells; in the series on rat primary hepatocytes (decay time 24 h), 83.0 pmol/million cells. In the series on rat primary hepatocytes (setting [3]), the “Compound 7 levels after 24 hours without drug” value was determined as 83 pmol/million cells. For the same molecule, the “reduction of Compound 7 levels after 24 hours without drug” value in the series on rat primary hepatocytes (setting [3]) worked out at 91%. Further, the “Compound 7 levels at time zero” value in the series with rat primary hepatocytes (rat hepatocytes, after 24 h with 10 μM [^14C]-Compound 1) is given as 932 pmol/million cells. For the same molecule, the half-life at 10 μM in series [2] (rat hepatocytes Rs458, after 24 h incubation with 10 μM [^14C]-Compound 1, linear regression) is 397 min; in series [2] (rat hepatocytes, following [^14C]-Compound 1), 397 min.
